Assay: Gel formation and CD of expected cleavage fragments
Type: physicochemical

**Q.** Which results are given for KSLSLS [MDP4a]?
**A.** Gel formation / self-assembly (phosphate buffer, physiological pH, in words): no longer able to assemble and form insoluble aggregates; CD spectrum (secondary structure) (see supporting information): simple random coil signature
